Test results taken from patent US6515012B2, “Process for the preparation of zofenopril calcium salt” (Menarini Ricerche S.p.A., priority 1998, dated 2003).
Structures can show the parent of a compound that is named as a salt.

What was measured:
[1] = Stability to micronisation of Polymorphs (grinding in ball microniser, DRX); format: physicochemical; settings: Retsch MM2 ball microniser, 200 mg sample, 80 vibrations/min, 15 minutes
[2] = tablets prepared with polymorph A or with polymorph B; J. Pharmaceutical & Biomedical Analysis, 1994, Vol 12, pp. 173-177; cited from earlier work
[3] = resistance to compression and/or micronisation; format: physicochemical; settings: polymorph A compared with polymorph B
[4] = storage stability of zofenopril calcium salt samples (interconversion to polymorph B, by DRX); format: physicochemical
Text: Determination of polymorph B in the samples of Polymoroh A : The percentage of polymorph B in samples of Polymorph A can easily be evaluated by observation of the X diffractograms (DRX). The region used for the analysis was that for 2θ ranging from 15 to 25. In this region, three peaks were evidenced, respectively I with […], II with 2θ=19.2 and III with 20θ=19.9, and the relative intensities I/III and II/III of various Polymorph A samples containing known amounts of Polymorph B (not above 30%) were measured. A regression equation was thereby obtained, which correlates the intensities of peaks I and II relating to peak III with the percentage of polymorph B present in the samples. The precision and the accuracy of the results obtainable with the above mentioned equation were good and, based on the confidence limits, the minimum amount of polymorph B detectable in polymorph A could be evaluated to be <7%. FIG. 4 reports the relationship between the above mentioned values based on the thus calculated regression equation and the observed values.

Row | SMILES | crystalline structure after grinding, according to DRX [1] | dissolution rate of tablets [2] | resistance to compression and/or micronisation [3] | interconversion to polymorph B ([4]; samples obtained according to the process of the invention) | percentage of polymorph B after storage ([4]; stored for 3 years at 25° C. and 60% relative humidity) | percentage of polymorph B after storage ([4]; stored for 6 months at 40° C. and 75% relative humidity)
1 | C[C@H](CSC(=O)c1ccccc1)C(=O)N1C[C@@H](Sc2ccccc2)C[C@H]1C(=O)O [polymorph B] | completely loses its crystalline structure | could not be differentiated | – | – | – | –
2 | C[C@H](CSC(=O)c1ccccc1)C(=O)N1C[C@@H](Sc2ccccc2)C[C@H]1C(=O)O [polymorph A] | still keeps the crystalline structure | could not be differentiated | more resistant to compression and/or micronisation than polymorph B | – | – | –
3 | C[C@H](CSC(=O)c1ccccc1)C(=O)N1C[C@@H](Sc2ccccc2)C[C@H]1C(=O)O [zofenopril calcium salt, [(4S)-(2S)-3-(benzoylthio)-2-methylpropionyl-4 (phenylthio)-L-proline] calcium salt] | – | – | – | no interconversion to polymorph B | below 7% | below 7%
